Values of other authors as cited in patent US8637310B2, “Use of a rock inhibitor to sustain primary human keratinocytes in a proliferative state” (The United States of America, as represented by the …, priority 2008, dated 2014).

Test system: airway epithelial cells
Conditions: Moore et al. 2004; cited from earlier work

O=S(=O)(c1cccc2cnccc12)N1CCCNCC1 [HA 1077]
effect on airway epithelial cells: induces membrane ruffling, loss of actin stress fibers and apoptosis
